Data: the supplement of paper PMC9005190

Legend:
[1] = target: FFA4; experiment: pEC50 of agonist-induced pathway activation (ebBRET)
[2] = tested on: FFA4; experiment: Emax (maximal agonist-induced change in ebBRET relative to vehicle) (% of vehicle response (amplitude of change)); higher = larger response (for Gs, larger decrease in membrane ebBRET, i.e. stronger Gs activation)
[3] = target: T1, EP1 (UniProt P34995); experiment: pEC50 of agonist-induced pathway activation (ebBRET)
T1 sequence (whole entry): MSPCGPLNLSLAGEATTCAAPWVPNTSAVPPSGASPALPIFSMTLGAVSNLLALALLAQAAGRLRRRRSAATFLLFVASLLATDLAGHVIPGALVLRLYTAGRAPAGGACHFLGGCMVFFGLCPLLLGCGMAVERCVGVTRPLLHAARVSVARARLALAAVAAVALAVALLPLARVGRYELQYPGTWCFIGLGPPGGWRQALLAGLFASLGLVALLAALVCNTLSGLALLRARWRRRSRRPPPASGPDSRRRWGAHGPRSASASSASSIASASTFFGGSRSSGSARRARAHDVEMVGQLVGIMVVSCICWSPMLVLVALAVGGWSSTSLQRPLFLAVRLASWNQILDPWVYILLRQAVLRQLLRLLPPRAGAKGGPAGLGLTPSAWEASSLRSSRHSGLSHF

[4] = target: FP (UniProt P43088); experiment: as above
FP, sequence (P43088 whole entry): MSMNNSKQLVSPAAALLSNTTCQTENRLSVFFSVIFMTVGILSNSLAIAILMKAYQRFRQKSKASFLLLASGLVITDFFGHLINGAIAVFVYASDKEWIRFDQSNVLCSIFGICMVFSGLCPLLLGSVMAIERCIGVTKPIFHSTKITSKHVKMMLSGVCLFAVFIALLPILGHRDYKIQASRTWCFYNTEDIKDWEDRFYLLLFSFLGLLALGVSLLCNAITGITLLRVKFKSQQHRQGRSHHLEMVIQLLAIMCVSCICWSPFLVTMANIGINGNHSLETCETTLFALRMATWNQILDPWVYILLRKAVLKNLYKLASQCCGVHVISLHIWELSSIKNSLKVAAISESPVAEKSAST

[5] = target: FP (UniProt P43088); experiment: Emax (maximal agonist-induced change in ebBRET relative to vehicle) (% of vehicle response (amplitude of change)); higher = larger response (for Gs, larger decrease in membrane ebBRET, i.e. stronger Gs activation)
[6] = target: P2Y2 (UniProt P41231); experiment: pEC50 of agonist-induced pathway activation (ebBRET)
P2Y2, sequence (P41231 whole entry): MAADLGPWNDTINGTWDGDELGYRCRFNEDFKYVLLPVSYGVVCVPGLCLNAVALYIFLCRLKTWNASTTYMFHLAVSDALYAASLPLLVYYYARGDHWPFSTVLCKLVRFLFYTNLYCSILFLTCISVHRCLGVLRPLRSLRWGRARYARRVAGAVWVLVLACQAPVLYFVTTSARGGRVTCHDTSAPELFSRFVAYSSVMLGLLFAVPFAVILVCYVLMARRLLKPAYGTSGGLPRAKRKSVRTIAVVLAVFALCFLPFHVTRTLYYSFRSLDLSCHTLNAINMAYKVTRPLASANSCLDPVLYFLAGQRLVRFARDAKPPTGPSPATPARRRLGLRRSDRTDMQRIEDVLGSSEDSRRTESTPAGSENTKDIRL

[7] = target: P2Y2 (UniProt P41231); experiment: Emax (maximal agonist-induced change in ebBRET relative to vehicle) (% of vehicle response (amplitude of change)); higher = larger response (for Gs, larger decrease in membrane ebBRET, i.e. stronger Gs activation)
[8] = target: LPA1 (UniProt Q92633); experiment: pEC50 of agonist-induced pathway activation (ebBRET)
LPA1, sequence (Q92633 whole entry): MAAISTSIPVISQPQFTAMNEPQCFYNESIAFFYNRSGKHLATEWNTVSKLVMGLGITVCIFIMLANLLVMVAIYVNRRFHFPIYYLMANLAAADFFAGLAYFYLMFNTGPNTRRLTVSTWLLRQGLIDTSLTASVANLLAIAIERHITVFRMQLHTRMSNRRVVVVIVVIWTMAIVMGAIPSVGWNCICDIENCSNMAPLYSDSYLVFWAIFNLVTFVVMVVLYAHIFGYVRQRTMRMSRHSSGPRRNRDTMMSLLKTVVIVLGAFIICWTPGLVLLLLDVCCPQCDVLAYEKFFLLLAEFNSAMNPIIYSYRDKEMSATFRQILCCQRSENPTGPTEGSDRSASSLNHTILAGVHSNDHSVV

[9] = target: T2, PAR1 (UniProt P25116); experiment: as above
T2 sequence (whole entry): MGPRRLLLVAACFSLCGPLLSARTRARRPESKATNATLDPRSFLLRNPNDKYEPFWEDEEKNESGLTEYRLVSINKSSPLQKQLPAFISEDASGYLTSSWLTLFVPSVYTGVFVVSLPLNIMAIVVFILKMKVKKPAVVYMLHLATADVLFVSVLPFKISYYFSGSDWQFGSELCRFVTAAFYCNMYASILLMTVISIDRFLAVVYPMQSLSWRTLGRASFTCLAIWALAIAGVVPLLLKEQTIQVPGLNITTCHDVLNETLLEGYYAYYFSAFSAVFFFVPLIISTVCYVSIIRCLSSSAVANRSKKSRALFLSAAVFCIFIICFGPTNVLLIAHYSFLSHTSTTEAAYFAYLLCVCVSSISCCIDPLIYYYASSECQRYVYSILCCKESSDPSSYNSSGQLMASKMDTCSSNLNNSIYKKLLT

[10] = target: T2, PAR1; experiment: Emax (maximal agonist-induced change in ebBRET relative to vehicle) (% of vehicle response (amplitude of change)); higher = larger response (for Gs, larger decrease in membrane ebBRET, i.e. stronger Gs activation)

CC/C=C\C/C=C\C/C=C\CCCCCCCC(=O)O [α-linolenic acid]
Conditions	Emax, [2]	pEC50, [1]
pathway (G protein / arrestin sensor): G11	288	5.08
pathway (G protein / arrestin sensor): G13	120	4.8
pathway (G protein / arrestin sensor): G14	297	5.5
pathway (G protein / arrestin sensor): G15	476	5.53
pathway (G protein / arrestin sensor): Gi1	35	6.12
pathway (G protein / arrestin sensor): Gi2	23.3	6.31
pathway (G protein / arrestin sensor): GoA	64	5.6
pathway (G protein / arrestin sensor): GoB	30.2	6.27
pathway (G protein / arrestin sensor): Gq	198	5.1
pathway (G protein / arrestin sensor): βarr1/GRK2	1090	4.7
pathway (G protein / arrestin sensor): βarr2	993	4.94
pathway (G protein / arrestin sensor): βarr2/GRK2	999	4.87

CCCCC[C@H](O)/C=C/[C@H]1[C@H](O)CC(=O)[C@@H]1C/C=C\CCCC(=O)O [PGE2]
[3]
Conditions	pEC50
pathway (G protein / arrestin sensor): G11	8.27
pathway (G protein / arrestin sensor): G12	9.51
pathway (G protein / arrestin sensor): G13	8.04
pathway (G protein / arrestin sensor): G14	7.95
pathway (G protein / arrestin sensor): G15	9.29
pathway (G protein / arrestin sensor): Gi1	6.43
pathway (G protein / arrestin sensor): Gi2	7.37
pathway (G protein / arrestin sensor): GoA	8
pathway (G protein / arrestin sensor): GoB	7.46
pathway (G protein / arrestin sensor): Gq	8.32
pathway (G protein / arrestin sensor): βarr2	7.41

CCCCC[C@H](O)/C=C/[C@H]1C(=O)C[C@H](O)[C@@H]1C/C=C\CCCC(=O)O [PGD2]
Conditions	Emax, [5]	pEC50, [4]
pathway (G protein / arrestin sensor): G11	459	8.66
pathway (G protein / arrestin sensor): G12	104	8.38
pathway (G protein / arrestin sensor): G13	183	8.78
pathway (G protein / arrestin sensor): G14	578	8.17
pathway (G protein / arrestin sensor): G15	437	8.88
pathway (G protein / arrestin sensor): GoA	84.8	6.92
pathway (G protein / arrestin sensor): GoB	114	6.99
pathway (G protein / arrestin sensor): Gq	306	8.73
pathway (G protein / arrestin sensor): Gz	122	7.46

O=c1ccn([C@@H]2O[C@H](COP(=O)(O)OP(=O)(O)OP(=O)(O)O)[C@@H](O)[C@H]2O)c(=O)[nH]1 [UTP]
Conditions	Emax, [7]	pEC50, [6]
pathway (G protein / arrestin sensor): G11	26.1	6.43
pathway (G protein / arrestin sensor): G14	26.7	6.29
pathway (G protein / arrestin sensor): G15	198	6.08
pathway (G protein / arrestin sensor): Gi1	59.2	6.29
pathway (G protein / arrestin sensor): Gi2	25.9	6.54
pathway (G protein / arrestin sensor): GoA	85.7	5.94
pathway (G protein / arrestin sensor): GoB	54.5	6.37
pathway (G protein / arrestin sensor): Gq	29.2	6.4
pathway (G protein / arrestin sensor): Gz	91.8	6.04
pathway (G protein / arrestin sensor): βarr1/GRK2	185	5.24
pathway (G protein / arrestin sensor): βarr2	346	4.99
pathway (G protein / arrestin sensor): βarr2/GRK2	94.7	5.36

CCCCCCCC/C=C\CCCCCCCC(=O)OCC(O)COP(=O)(O)O (stereo not drawn) [O-LPA]
[8]
Conditions	pEC50
pathway (G protein / arrestin sensor): G11	6.92
pathway (G protein / arrestin sensor): G13	8.35
pathway (G protein / arrestin sensor): G14	5.63
pathway (G protein / arrestin sensor): G15	6.31
pathway (G protein / arrestin sensor): Gi1	9.2
pathway (G protein / arrestin sensor): GoA	8.89
pathway (G protein / arrestin sensor): Gq	7.51
pathway (G protein / arrestin sensor): βarr1/GRK2	7.53
pathway (G protein / arrestin sensor): βarr2	6.58
pathway (G protein / arrestin sensor): βarr2/GRK2	7.46

CC(C)C[C@H](NC(=O)[C@H](CC(C)C)NC(=O)[C@H](Cc1ccccc1)NC(=O)[C@@H](N)[C@@H](C)O)C(=O)N[C@@H](CCCN=C(N)N)C(N)=O [TFLLR-NH2]
Conditions	Emax, [10]	pEC50, [9]
pathway (G protein / arrestin sensor): G11	382	6.55
pathway (G protein / arrestin sensor): G13	193	7.11
pathway (G protein / arrestin sensor): G14	405	5.74
pathway (G protein / arrestin sensor): G15	332	6.22
pathway (G protein / arrestin sensor): Gi1	574	4
pathway (G protein / arrestin sensor): Gi2	177	5.04
pathway (G protein / arrestin sensor): GoA	73	5.89
pathway (G protein / arrestin sensor): GoB	221	6
pathway (G protein / arrestin sensor): Gq	238	6.72
pathway (G protein / arrestin sensor): Gz	144	6.41
pathway (G protein / arrestin sensor): βarr1/GRK2	446	5.08
pathway (G protein / arrestin sensor): βarr2	439	5.12
pathway (G protein / arrestin sensor): βarr2/GRK2	470	5.18
